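Each compound was tested at five concentrations against cells in 96-well plates for 48 hours. The concentration for full growth arrest is given as TGI.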 A value given as a limit tells only on which side of the number the result lay.

Holding throughout (test): NCI-60 cell line screen, 48 h
Assay [1] deals with SN12C renal.
The test system of assay [2] is SK-MEL-28 melanoma.
The subject of assay [3] is UO-31 renal.
The subject of assay [4] is MCF7 breast.
The subject of assay [5] is PC-3 prostate.
For assay [6], the system named is SF-295 CNS.
Assay [7] has as its system NCI/ADR-RES ovarian.
The subject of assay [8] is CAKI-1 renal.
Assay [9] deals with HCC-2998 colon.
Assay [10] deals with HT29 colon.
For assay [11], the system named is EKVX NSCLC.
In assay [12] the test system is SNB-75 CNS.

As for `CNC(=O)CCNC(=O)CCC(=O)N(C)C`, the TGI in [1], in assay [2], in [3], in assay [4], in assay [5] and in [6] was over 100 µM each time. Also, the TGI in assay [7], in assay [8], in [9] and in assay [10] was over 100 µM each time.
As for `COC(=O)/C=C/c1cnc2c(c1)oc(=O)n2CCc1ccccn1`, the TGI in [1], in [2], in assay [11], in [3], in assay [4] and in assay [5] was over 100 µM in each case. Besides, the TGI in [6], in assay [7], in [12], in assay [9] and in [10] was over 100 µM each time.
`CCN(CC)c1ccc2c(c1)OC(=O)C(c1nnc(-c3ccc([N+](=O)[O-])cc3)o1)C2` (stereo unspecified): the TGI in assay [2], in assay [11], in assay [3], in assay [4], in assay [5] and in [6] was over 100 µM in each case. For the same molecule, the TGI in assay [7], in assay [8], in [12], in assay [9] and in [10] was over 100 µM in each case.
In the case of `CCOC(=O)N1CCN(c2c(C)nc(C)[nH]c2=O)CC1`, the TGI in [1], in assay [2], in assay [11], in assay [3], in assay [4] and in assay [5] was over 100 µM in each case. Moreover, the TGI in assay [6], in [7], in [8], in assay [9] and in assay [10] was over 100 µM throughout.
In the case of `O=c1[nH]c(=O)n(C2CC(O)C(CO)O2)cc1OCCc1ccccc1` (stereo unspecified), the TGI in assay [1], in [2], in [11], in assay [3], in assay [4] and in [5] was over 100 µM throughout. In addition, the TGI in assay [6], in [7], in [8], in assay [12] and in assay [10] was over 100 µM each time.
As for `N#Cc1nc(CSCc2ccccc2)oc1N`, the TGI in assay [1], in assay [2], in assay [3], in [4], in [5] and in assay [6] was over 100 µM in each case. Further, the TGI in assay [7], in [8], in assay [9] and in assay [10] was over 100 µM each time.
For the molecule `C[C@@]12c3c4ccc(C=O)c3Oc3ccc(C=O)c(c31)Oc1c(C=O)ccc(c12)O4`, the TGI in [1], in [2], in assay [11], in [3], in assay [4] and in [5] was over 100 µM each time. Moreover, the TGI in assay [6], in assay [7], in assay [12], in [9] and in [10] was over 100 µM in each case.
In the case of `CCCCC1Cc2ccccc2-c2n1c1ccccc1[n+]2C` (stereo unspecified), the TGI was 91 µM in assay [2]; over 100 µM in [11]; over 100 µM in [3]; over 100 µM in [4]; 43 µM in assay [5]; over 100 µM in assay [6]. Also, the TGI in [7] was over 100 µM; in assay [8], over 100 µM; in assay [9], 48.3 µM; in assay [10], 57.8 µM.
In the case of `Cc1c(/C=N/NC(=S)Nc2cccc(Cl)c2)c(=O)n(-c2ccccc2)n1C`, the TGI in assay [2] was over 100 µM; in assay [11] it was 33.3 µM; in [3] it was 88.7 µM; in assay [4], 62.5 µM; in [5] it was over 100 µM; in assay [6], 28 µM. Besides, the TGI in assay [7] was 33.8 µM; in [8], 25.7 µM; in [12] it was 28.3 µM; in [9], over 100 µM; in assay [10] it was over 100 µM.
As for `O=C(O)c1nc2cc(C(F)(F)F)ccc2nc1Nc1ccc(Cl)c(Cl)c1`, the TGI was determined as 42.4 µM in assay [11]; 27.6 µM in assay [3]; 90.1 µM in [4]; 16.1 µM in assay [5]; 31.7 µM in assay [6]; 23.2 µM in assay [7]. The figures for the TGI in assay [8], in [12] and in [10] were 80.3 µM, 53.3 µM and 28.8 µM, respectively.
For the molecule `CCOC(=O)[C@@H]1C[C@H]1c1ccc(O)c(O)c1`, the TGI in assay [1], in [2], in assay [11], in assay [3], in [4] and in [5] was over 100 µM throughout. For the same molecule, the TGI is over 100 µM in assay [6]; over 100 µM in assay [7]; over 100 µM in [8]; 91.9 µM in assay [9]; over 100 µM in assay [10].
For `Cc1ccc(N/C(Sc2ccccc2)=C(/C(Cl)=C(Cl)Cl)[N+](=O)[O-])c(C)c1`, the TGI was found to be 43.1 µM in [1]; 41.2 µM in assay [2]; 65.1 µM in assay [11]; 28 µM in [4]; 36.1 µM in [5]; 47 µM in assay [6]. Also, the TGI in [7] came to 70.4 µM; in assay [8] it was 30.7 µM; in [9], 36 µM; in assay [10], 35.6 µM.

The record behind these values is PubChem BioAssay (NCI).
